# Target: T1, Full-length wild type HIV-1 integrase (SF1) (Human immunodeficiency virus type 1 group M subtype B, UniProt P04585)
# T1 construct: made in house; host or cells: E. coli BL21 (DE3), pET24a vector
# Assay: Integrase strand-transfer scintillation proximity assay
# Format: biochemical
# Details: IC50, integrase strand-transfer SPA
# Excerpt: Integrase Strand-Transfer Scintillation Proximity Assay Oligonucleotides
# The annealed product represents preprocessed viral ds-DNA derived from the LTR U5 sequence of the viral genome. A ds-DNA control to test for non-specific interactions was made using a 3′ di-deoxy derivative of oligonucleotide #1 annealed to oligonucleotide #2. The CA overhang at the 5′ end of the non-biotinylated strand of the ds-DNA was created artificially by using a complimentary DNA oligonucleotide shortened by 2 base pairs. This configuration eliminates the requisite 3′ processing step of the integrase enzyme prior to the strand-transfer mechanism.
# Host ds-DNA was prepared as an unlabeled and [^3H]-thymidine labeled product from annealed oligonucleotide #3—5-[…]-3′ (SEQ ID NO: 3), and oligonucleotide #4—5′-[…]-3′ (SEQ ID NO: 4), both synthesized by TriLink BioTechnologies, Inc. (San Diego, Calif.). The annealed product had overhanging 3′ ends of poly(dA). […] The radiolabeled product was purified using a NENSORB cartridge and stored in stabilized aqueous solution (PerkinElmer).
# Reagents: Streptavidin-coated polyvinyltoluene (PVT) SPA beads were purchased from Amersham Biosciences (Piscataway, N.J.). Cesium chloride was purchased from Shelton Scientific, Inc. (Shelton, Conn.). White, polystyrene, flat-bottom, non-binding surface, 96-well plates were purchased from Corning. All other buffer components were purchased from Sigma (St. Louis, Mo.) unless otherwise indicated. Enzyme Construction: Full-length wild type HIV-1 integrase (SF1) sequence (amino acids 1-288) was constructed in a pET24a vector (Novagen, Madison, Wis.). […] Enzyme Purification: Full length wild-type HIV Integrase was expressed in E.coli BL21 (DE3) cells and induced with 1 mM isopropyl-1 thio-β-D-galactopyranoside (IPTG) when cells reached an optical density between 0.8-1.0 at 600 nm. Cells were lysed by microfluidation in 50 mM HEPES pH 7.0, 75 mM NaCl, 5 mM DTT, 1 mM 4-(2-Aminoethyl)benzenesulfonylfluoride HCl (AEBSF). Lysate was then centrifuged 20 minutes at 11 k rpm in GSA rotor in Sorvall RC-5B at 4° C. Supernant was discarded and pellet resuspended in 50 mM HEPES pH 7.0, 750 mM NaCl, 5 mM DTT, 1 mM AEBSF and homogenized in a 40 mL Dounce homogenizer for 20 minutes on ice. Homogenate was then centrifuged 20 minutes at 11 k rpm in SS34 rotor in Sorvall RC-5B at 4° C. Supernant was discarded and pellet resuspended in 50 mM HEPES pH 7.0, 750 mM NaCl, 25 mM CHAPS, 5 mM DTT, 1 mM AEBSF. Preparation was then centrifuged 20 minutes at 11 k rpm in SS34 rotor in Sorvall RC-5B at 4° C.
# Supernant was then diluted 1:1 with 50 mM HEPES pH 7.0, 25 mM CHAPS, 1 mM DTT, 1 mM AEBSF and loaded onto a Q-Sepharose column pre-equilibrated with 50 mM HEPES, pH 7.0, 375 mM NaCl, 25 mM CHAPS, 1 mM DTT, 1 mM AEBSF. The flow through peak was collected and NaCl diluted to 0.1 M with 50 mM HEPES pH 7.0, 25 mM CHAPS, 1 mM DTT, 0.5 mM AEBSF and loaded onto a SP-Sepharose column pre-equilibrated with 50 mM HEPES pH 7.0, 100 mM NaCl, 25 mM CHAPS, 1 mM DTT, 0.5 mM AEBSF. After washing the column with the equilibration buffer, a 100 to 400 mM NaCl gradient was run. The eluted integrase was concentrated and run on a S-300 gel diffusion column using 50 mM HEPES pH 7.0, 500 mM NaCl, 25 mM CHAPS, 1 mM DTT, 0.5 mM AEBSF. […] All columns were run in a 4° C. cold room.
# Viral DNA Bead Preparation: Streptavidin-coated SPA beads were suspended to 20 mg/mL in 25 mM 3-morpholinopropanesulfonic acid (MOPS) (pH 7.2) and 1.0% NaN3.
row,Structure (SMILES),IC50 [nM]
1,"NC(=O)[C@@H]1CCCN1Cc1cn(Cc2ccc(F)cc2)c2cnc3c(=O)n(O)ccc3c12 [Example 5, 1-{[3-(4-fluorobenzyl)-7-hydroxy-6-oxo-6,7-dihydro-3H-pyrrolo[2,3-c]-1,7-naphthyridin-1-yl]methyl}-L-prolinamide]",18

# Same assay, conditions: integrase strand-transfer SPA; read-out: IC50
row,Structure (SMILES),IC50 [nM]
1,"O=c1c2ncc3c(ccn3Cc3ccc(F)cc3)c2ccn1O [Example 1, 3-(4-Fluorobenzyl)-7-hydroxy-3,7-dihydro-6H-pyrrolo[2,3-c]-1,7-naphthyridin-6-one]",20
2,"O=C1c2ncc3c(ccn3Cc3ccc(F)cc3)c2CCN1O [Example 2, 3-(4-Fluorobenzyl)-7-hydroxy-3,7,8,9-tetrahydro-6H-pyrrolo[2,3-c]-1,7-naphthyridin-6-one]",30
3,"O=C1c2ncc3c(ccn3Cc3ccc(F)cc3)c2CCCN1O [Example 3, 3-(4-Fluorobenzyl)-7-hydroxy-7,8,9,10-tetrahydropyrrolo[3′,2′:4,5]pyrido[2,3-c]azepin-6(3H)-one]",17
4,"CN(C)Cc1cn(Cc2ccc(F)cc2)c2cnc3c(=O)n(O)ccc3c12 [Example 4, 1-[(dimethylamino)methyl]-3-(4-fluorobenzyl)-7-hydroxy-3,7-dihydro-6H-pyrrolo[2,3-c]-1,7-naphthyridin-6-one]",8
5,"O=C1CN(Cc2cn(Cc3ccc(F)cc3)c3cnc4c(=O)n(O)ccc4c23)CCN1 [Example 6, 3-(4-fluorobenzyl)-7-hydroxy-1-[(3-oxopiperazin-1-yl)methyl]-3,7-dihydro-6H-pyrrolo(2,3-c]-1,7-naphthyridin-6-one]",7
6,"CN1CCN(Cc2cn(Cc3ccc(F)cc3)c3cnc4c(=O)n(O)ccc4c23)CC1 [Example 7, 3-(4-fluorobenzyl)-7-hydroxy-1-[(4-methylpiperazin-1-yl)methyl]-3,7-dihydro-6H-pyrrolo[2,3-c]-1,7-naphthyridin-6-one]",17
7,"CCN1CCN(Cc2cn(Cc3ccc(F)cc3)c3cnc4c(=O)n(O)ccc4c23)CC1 [Example 8, 1[(4-ethylpiperazin-1-yl)methyl]-3-(4-fluorobenzyl)-7-hydroxy-3,7-dihydro-6H-pyrrolo[2,3-c]-1,7-naphthyridin-6-one]",14
8,"O=c1c2ncc3c(c(CN4CCc5ccccc5C4)cn3Cc3ccc(F)cc3)c2ccn1O [Example 10, 1-(3,4-dihydroisoquinolin-2(1H)-ylmethyl)-3-(4-fluorobenzyl)-7-hydroxy-3,7-dihydro-6H-pyrrolo[2,3-c]-1,7-naphthyridin-6-one]",40
9,"CCCCCN(C)Cc1cn(Cc2ccc(F)cc2)c2cnc3c(=O)n(O)ccc3c12 [Example 11, 3-(4-fluorobenzyl)-7-hydroxy-1-{[methyl(pentyl)amino]methyl}-3,7-dihydro-6H-pyrrolo[2,3-c]-1,7-naphthyridin-6-one]",6
10,"NC(=O)[C@H]1CCCN1Cc1cn(Cc2ccc(F)cc2)c2cnc3c(=O)n(O)ccc3c12 [Example 12, 1-{[3-(4-fluorobenzyl)-7-hydroxy-6-oxo-6,7-dihydro-3H-pyrrolo[2,3-c]-1,7-naphthyridin-1-yl]methyl)-D-prolinamide]",13
11,"O=C1NCCC12CCN(Cc1cn(Cc3ccc(F)cc3)c3cnc4c(=O)n(O)ccc4c13)CC2 [Example 13, 3-(4-fluorobenzyl)-7-hydroxy-1-[(1-oxo-2,8-diazaspiro[4,5]dec-8-yl)methyl]-3,7-dihydro-6H-pyrrolo[2,3-c]-1,7-naphthyridin-6-one]",8
12,"CCN(Cc1cn(Cc2ccc(F)cc2)c2cnc3c(=O)n(O)ccc3c12)C1CCCCC1 [Example 14, 1-{[cyclohexyl(ethyl)amino]methyl}-3-(4-fluorobenzyl)-7-hydroxy-3,7-dihydro-6H-pyrrolo[2,3-c]-1,7-naphthyridin-6-one]",13
13,"O=C(CN1CCN(Cc2cn(Cc3ccc(F)cc3)c3cnc4c(=O)n(O)ccc4c23)CC1)N1CCCC1 [Example 15, 3-(4-fluorobenzyl)-7-hydroxy-1-{[4-(2-oxo-2-pyrrolidin-1-ylethyl)piperazin-1-yl]methyl}-3,7-dihydro-6H-pyrrolo[2,3-c]-1,7-naphthyridin-6-one]",5
14,"CN(CCc1ccccn1)Cc1cn(Cc2ccc(F)cc2)c2cnc3c(=O)n(O)ccc3c12 [Example 16, 3-(4-fluorobenzyl)-7-hydroxy-1-{[methyl (2-pyridin-2-ylethyl)amino]methyl}-3,7-dihydro-6H-pyrrolo[2,3-c]-1,7-naphthyridin-6-one]",6
15,"O=C1CCCN1CC1(O)CCN(Cc2cn(Cc3ccc(F)cc3)c3cnc4c(=O)n(O)ccc4c23)CC1 [Example 18, 3-(4-fluorobenzyl)-7-hydroxy-1-({4-hydroxy-4-[(2-oxopyrrolidin-1-yl)methyl]piperidin-1-yl}methyl)-3,7-dihydro-6H-pyrrolo[2,3-c]-1,7-naphthyridin-6-one]",11
16,"O=C1CCN(Cc2cn(Cc3ccc(F)cc3)c3cnc4c(=O)n(O)ccc4c23)CCN1 [Example 19, 3-(4-fluorobenzyl)-7-hydroxy-1-[(5-oxo-1,4-diazepan-1-yl)methyl]-3,7-dihydro-6H-pyrrolo[2,3-c]-1,7-naphthyridin-6-one]",5
17,"NC(=O)[C@@H]1CCCN1S(=O)(=O)c1cn(Cc2ccc(F)cc2)c2cnc3c(=O)n(O)ccc3c12 [Example 20, 1-{[3-(4-fluorobenzyl)-7-hydroxy-6-oxo-6,7-dihydro-3H-pyrrolo[2,3-c]-1,7-naphthyridin-1-yl]sulfonyl)-L-prolinamide]",9
18,"O=c1c2ncc3c(c(S(=O)(=O)NCCc4c[nH]c5ccccc45)cn3Cc3ccc(F)cc3)c2ccn1O [Example 21, 3-(4-fluorobenzyl)-7-hydroxy-N-{2-(1H-indol-3-yl)ethyl]-6-oxo-6,7-dihydro-3H-pyrrolo[2,3-c]-1,7-naphthyridine-1-sulfonamide]",46
19,"O=C1CN(S(=O)(=O)c2cn(Cc3ccc(F)cc3)c3cnc4c(=O)n(O)ccc4c23)CCN1 [Example 22, 3-(4-fluorobenzyl)-7-hydroxy-1-[(3-oxopiperazin-1-yl)sulfonyl]-3,7-dihydro-6H-pyrrolo[2,3-c]-1,7-naphthyridin-6-one]",6
20,"CN(C)S(=O)(=O)c1cn(Cc2ccc(F)cc2)c2cnc3c(=O)n(O)ccc3c12 [Example 23, 3-(4-fluorobenzyl)-7-hydroxy-N,N-dimethyl-6-oxo-6,7-dihydro-3H-pyrrolo[2,3-c]-1-naphthyridine-1-sulfonamide]",10
21,"O=c1c2ncc3c(c(S(=O)(=O)NCC(F)(F)F)cn3Cc3ccc(F)cc3)c2ccn1O [Example 24, 3-(4-fluorobenzyl)-7-hydroxy-6-oxo-N-(2,2,2-trifluoroethyl)-6,7-dihydro-3H-pyrrolo[2,3-c]-1,7-naphthyridine-1-sulfonamide]",5
22,"O=c1c2ncc3c(c(S(=O)(=O)NCc4ccc(F)cc4)cn3Cc3ccc(F)cc3)c2ccn1O [Example 25, N,3-bis(4-fluorobenzyl)-7-hydroxy-6-axo-6,7-dihydro-3H-pyrrolo[2,3-c]-1,7-naphthyridine-1-sulfonamide]",35
23,"O=C(c1cn(Cc2ccc(F)cc2)c2cnc3c(=O)n(O)ccc3c12)N1CCCC1 [Example 26, 3-(4-fluorobenzyl)-7-hydroxy-1-(pyrrolidin-1-ylcarbonyl)-3,7-dihydro-6H-pyrrolo[2,3-c]-1,7-naphthyridin-6-one]",9

# Source: patent US7692014B2, “Inhibitors of the HIV integrase enzyme” (Pfizer, Inc., priority 2004, dated 2010)
